Read-outs that look alike come from different tables or passages of the source.
What was measured:
[1] = cited from earlier work
[2] = n-octanol/pH 7.0 buffer; cited from earlier work
[3] = Penetration of drugs through shed snake skin pretreated with enhancer (Franz diffusion cell, HPLC); details: for RE (Relative enhancement compared to Azone®) / R.E. (Relative enhancement): 32°C; for R.E. (Relative enhancement): pH 7.0, relative to control (=1)
Protocol: The penetration promoting activity of DAIPD was compared to that of Azone®, taken as a typical enhancer, using shed snake skin as a model membrane. […] The permeants were selected to provide examples of basic drugs (clonidine), neutral drugs (hydrocortisone) and acidic drugs (indomethacin).
Shed snake skins were prepared as previously reported (Büyüktimkin, S., Büyüktimkin, N., and Rytting, J.H., Synthesis and enhancing effect of dodecyl 2-(N,N-dimethylamino) propionate on the transepidermal delivery of indomethacin, clonidine, and hydrocortisone, Pharm. Res., 10: 1632-1637, 1993) and as described in U.S. Patents No. 4,980,378 and No. 5,082,866, the disclosures of which are incorporated herein by reference. Shed snake skins were stored at -20°C. Before the experiment they were allowed to come to room temperature at least 12 hours before use. To reduce the variability of results, pieces cut from the same whole snake skin were used for each set of experiments
Indomethacin, clonidine, and hydrocortisone were assayed by HPLC procedures as described earlier; see Büyüktimkin et al., (1993), above.
Pieces of shed snake skin (approximately 3 x 3 cm) were pretreated with 15 µl of enhancer (divided into three 5 µl portions) 2 hr before the experiment. After mounting the skin on top of a Franz receptor cell filled with pH 7.0 (0.1 M) phosphate buffer, the donor cell was clamped on the top of the receptor cell. An aliquot of 0.5 ml of a suspension of hydrocortisone or indomethacin, prepared by suspending 50 mg or 25 mg of the drugs respectively, in 25 ml of the same buffer and stirring for 24 hr at 32°C, or a solution of clonidine (2%) in the same buffer were added to the donor cell. The solution in the receptor compartment was stirred by a magnetic stirrer. At appropriate time intervals samples were withdrawn from the receptor compartment and analyzed by HPLC.

[4] = tested on: porcine esterase; experiment: Biodegradability of the enhancer in the presence of porcine esterase (HPLC disappearance of enhancer peak); format: in vitro ADME; details: 32°C, pH 7.0
Protocol: A 0.1 ml aliquot of porcine esterase (235 units per mg protein) was diluted to 100 ml with pH 7.0 phosphate buffer. The enhancer solution was prepared by dissolving -12 mg (-0.045 mmoles) of the enhancer in 10 ml acetonitrile. An aliquot of 100 µl of this solution was transferred into a 10 ml volumetric flask. 9.8 ml of pH 7.0 buffer and 100 µl diluted esterase solution were added. The mixture was kept in a water bath at 32°C with constant stirring. The disappearance of the enhancer peak was monitored by HPLC. The absorbance wavelength was 204 nm. The solvent system was a mixture of acetonitrile and 0.02 M aqueous sodium hexanesulfonate (7:4) with a flow rate of 0.9 ml/min. The retention time of DAIPD was 3.95 min. The kinetic runs were done in triplicate.
The existence of esterase activity has been reported in shed snake skin (Nghiem, B.T., and Higuchi, T., Esterase activity in snake skin, Int. J. Pharm. 44: 125-130, 1988) . To confirm the biodegradability of DAIPD, its fragmentation in the presence of porcine esterase was examined. […] Esterase-catalyzed biodegradability of the enhancer is therefore confirmed. […] (Hirvonen, J., Paronen, P., and Urtti, A., Reversible enhancement of transdermal propranolol by dodecyl N,N-dimethylamino acetate, 18th International Symposium on Controlled Release of Bioactive Materials, July 8-11, 1991, Amsterdam, p 31).

Compound | log P [2] | RE (Relative enhancement compared to Azone®) ([3]; Clonidine) | RE (Relative enhancement compared to Azone®) ([3]; Hydrocortisone) | RE (Relative enhancement compared to Azone®) ([3]; Indomethacin) | R.E. (Relative enhancement) ([3]; clonidine) | R.E. (Relative enhancement) ([3]; hydrocortisone) | R.E. (Relative enhancement) ([3]; indomethacin) | other results
CCCCCCCCCCCCOC(=O)CN(C)C [DDAA, dodecyl N,N-dimethylamino acetate] |  |  |  |  |  |  |  | enhancement of transdermal delivery of propranolol following pretreatment ([1]; after 4 days): no longer enhanced
C[C@]12CCC(=O)C=C1CC[C@@H]1[C@@H]2[C@@H](O)C[C@@]2(C)[C@H]1CC[C@]2(O)C(=O)CO [hydrocortisone] | 0.8 |  |  |  |  |  |  | 
Clc1cccc(Cl)c1N=C1NCCN1 [clonidine] | 0.4 |  |  |  |  |  |  | 
CCCCCCCCCCCCN1CCCCCC1=O [Azone®, 1-dodecylazacycloheptane-2-one] |  | 1 | 1 | 1 | 13 | 41 | 46 | RE (Relative enhancement compared to Azone®) ([3]; Prazosin (45% ethanolic solution)): 1; RE (Relative enhancement compared to Azone®) ([3]; Prostaglandin E1): 1; enhancement of transdermal delivery of propranolol following pretreatment ([1]; after a week): the enhancement still existed
COc1ccc2c(c1)c(CC(=O)O)c(C)n2C(=O)c1ccc(Cl)cc1 [indomethacin] | 1.2 |  |  |  |  |  |  | 
CCCCCCCCCCCC(=O)OC(C)CN(C)C (stereo not shown) [DAIPD, 1-(N,N-dimethylamino)-2-propanol dodecanoate] |  | approximately two-fold | approximately two-fold | approximately equal to that of Azone® | 27 | 88 | 53 | Lag times ([3]; permeation of Clonidine, standard deviation in brackets): No lag time enhancement was found; half-life at 45 µM ([4]; pig, porcine esterase in phosphate buffer, degradation): 1.32 h; kobs ([4]; pseudo first order degradation): 0.0087 min⁻¹

Source: patent EP0746294B1, “ABSORPTION ENHANCERS FOR TOPICAL PHARMACEUTICAL FORMULATIONS” (ODONTEX, INC., priority 1993, dated 1995)
